For one assay, the target named is T1, DPP-IV (Homo sapiens, UniProt P27487).
T1 construct: purchased R&D 1180-SE
The assay can be described thus: Active inhibition DPP-IV assay (Gly-Pro-AMC substrate, fluorescence). In kind it is biochemical. The conditions noted are these: Gly-Pro-AMC 10 μM, 25 mM Tris pH 8.0. On the procedure:
(§1) The following methods were used for testing the inhibitive action of the compound disclosed herein against DPP-IV, DPP-8 and DPP-9 enzymatic activity. The inhibitive ability of the compound disclosed herein against enzymatic activity of DPP-IV, DPP-8 and DPP-9 was tested. The measurements of the inhibition ratio or the 50% inhibiting concentration IC50 of every compound were based on a fixed quantity of enzyme-substrate mixtures and different concentrations of the test compounds.
DPP-IV enzyme was purchased from R&D, Catalog No. 1180-SE.
(§2) The test compound was dissolved in an appropriate amount of DMSO to prepare 100 mM mother liquor, which was divided into EP tubes and preserved at −20° C. The mother liquor was diluted with an assay buffer to prepare solutions with required concentrations. Sample solutions with different concentrations (4 μL) and certain concentration of DPP-IV (DPP-8 or DPP-9) solution (4 μL) were added into 384-well plates in turn. Referred to the instruction manual, Gly-Pro-AMC was selected as a substrate and the concentration thereof was 10 μM. The 16 mM mother liquor was prepared from the substrate and preserved at −20° C. for use. The 16 mM mother liquor was diluted with an assay buffer to a solution of known concentration. The assay buffer of DPP-IV was 25 mM Tris, and its pH was 8.0. The assay buffers of DPP-8 and DPP-9 were 50 mM Tris, and their pH was 7.5. The substrate mother liquor was diluted with an assay buffer, and the mixture (4 μL) was added into 384-well plates to prepare final solution concentration. The whole process was carried out in an ice bath. After the addition of the components of the assay system was completed, the system was centrifuged. The supernatant was then transferred to an Infinite F200 multifunctional microplate reader, and 20 fluorescence values were recorded every 30 sec. And then Slope (V0) was calculated directly by the software of microplate reader, fetching the data in the linear range. The measured reaction rate and the corresponding inhibition concentration were analyzed. Percent inhibition is I(%)=(V0−Vi)/V0×100%. Vi represents the initial reaction rate at different inhibition concentrations. V0 represents the initial reaction rate without inhibitor. Vi/V0 represents the inhibition level of inhibitor. Relevant curve chart was made with inhibition concentration as a horizontal coordinate and the value of Vi/V0 as a vertical coordinate. The IC50 values were calculated by Graph Pad Prism statistical analysis software.

The next assay deals with T2, DPP-8 (Homo sapiens, UniProt Q6V1X1).
T2 construct: purchased Biomol SE-827
T2 sequence (Q6V1X1 whole entry): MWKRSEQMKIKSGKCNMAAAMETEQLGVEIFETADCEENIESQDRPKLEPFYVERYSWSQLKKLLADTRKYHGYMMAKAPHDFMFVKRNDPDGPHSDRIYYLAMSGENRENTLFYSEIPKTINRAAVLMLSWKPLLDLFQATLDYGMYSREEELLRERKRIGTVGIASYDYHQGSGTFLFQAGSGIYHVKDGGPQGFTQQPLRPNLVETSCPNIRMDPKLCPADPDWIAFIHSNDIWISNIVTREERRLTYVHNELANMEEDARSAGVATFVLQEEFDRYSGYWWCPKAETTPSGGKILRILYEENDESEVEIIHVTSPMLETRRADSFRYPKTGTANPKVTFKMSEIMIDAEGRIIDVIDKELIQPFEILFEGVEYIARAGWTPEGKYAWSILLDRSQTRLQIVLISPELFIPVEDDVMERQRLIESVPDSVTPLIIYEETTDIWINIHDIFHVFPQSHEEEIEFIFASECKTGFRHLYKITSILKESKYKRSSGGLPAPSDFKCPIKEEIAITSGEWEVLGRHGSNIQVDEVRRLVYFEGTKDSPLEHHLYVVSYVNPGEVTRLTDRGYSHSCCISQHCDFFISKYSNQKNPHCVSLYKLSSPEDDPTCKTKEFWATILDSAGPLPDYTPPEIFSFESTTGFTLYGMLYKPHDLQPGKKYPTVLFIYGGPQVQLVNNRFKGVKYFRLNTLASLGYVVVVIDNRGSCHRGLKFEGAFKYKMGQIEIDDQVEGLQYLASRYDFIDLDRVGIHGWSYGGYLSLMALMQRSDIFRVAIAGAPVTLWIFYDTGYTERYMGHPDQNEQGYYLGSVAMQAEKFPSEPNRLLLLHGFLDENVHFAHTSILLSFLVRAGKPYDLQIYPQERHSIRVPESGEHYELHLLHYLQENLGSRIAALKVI
Kind of assay: Active inhibition DPP-8 assay (Gly-Pro-AMC substrate, fluorescence). It counts as biochemical. The conditions noted are these: Gly-Pro-AMC 10 μM, 50 mM Tris pH 7.5. How it is done: as §1
DPP-8 enzyme was purchased from Biomol, Catalog No. SE-827.
as §2

Another assay has as its target T3, DPP-9 (Homo sapiens, UniProt Q86TI2).
T3 construct: purchased Bioscience 80090
The assay can be described thus: Active inhibition DPP-9 assay (Gly-Pro-AMC substrate, fluorescence). The conditions noted are these: Gly-Pro-AMC 10 μM, 50 mM Tris pH 7.5. In kind it is biochemical. On the procedure:
as §1
DPP-9 enzyme was purchased from Bioscience, Catalog No. 80090.
as §2

Another assay concerns normal C57BL/6 mice. Kind of assay: Effects of DPP-IV inhibitors on the blood glucose of normal C57BL/6 mice (oral glucose tolerance). It counts as in vivo. Particulars: oral 5 mg/kg. On the procedure: The effects of the test compounds on the oral glucose tolerance of normal C57BL/6 mice were observed, and the hypoglycemic activities of these compounds in vivo were evaluated preliminarily.
Preparation procedure: Drugs were accurately weighed, and 5 mg of compounds of examples 3, 9 15, 16 and 17 were dissolved respectively in 20 mL of normal saline to obtain 0.25 mg/mL solutions.
Administrated Dose: The oral dose was 5 mg/kg and the gavage dose was 0.02 mL/g.
Test Method: The normal male C57BL/6 mice were grouped randomly into a blank control group, a positive control group, and treatment groups having 7 mice each group.
Administration and Serum Glucose Determination: C57BL/6 mice of each group were fasted for 18 hours before the experiment. The blood was drawn from the caudal vein of the mice and the glucose level was measured by using a blood-glucose meter. After detection, 0.25 mg/mL of positive control, 0.25 mg/mL of examples 3, 9, 15, 16 and 17 and normal saline were respectively administered to the positive control group, treatment groups and blank control group by intragastric administration. The blood glucose level (0 min) of positive control group was measured in 60 min after administration. The blood glucose levels (0 min) of the other groups were measured in 30 min after administration, and then glucose (2.5 g/kg) was administered to the mice through gavage. The blood was drawn from the caudal vein of the mice in 15 min, 30 min, 45 min, 60 min, 120 min after administration. The blood glucose levels of C57BL/6 mice were measured continuously by blood-glucose meter.
1. Glucose concentration-time curve was plotted, and AUC from 0 to 120 min and hypoglycemic rate of each dosage group at blood glucose peak were calculated.
2. Experimental data were represented in x±SD. The data were analyzed by SPSS 16.0 software. The data were compared between multiple groups using nonparametric Kruskal-Wallis H test method.

T3 sequence (Q86TI2 whole entry): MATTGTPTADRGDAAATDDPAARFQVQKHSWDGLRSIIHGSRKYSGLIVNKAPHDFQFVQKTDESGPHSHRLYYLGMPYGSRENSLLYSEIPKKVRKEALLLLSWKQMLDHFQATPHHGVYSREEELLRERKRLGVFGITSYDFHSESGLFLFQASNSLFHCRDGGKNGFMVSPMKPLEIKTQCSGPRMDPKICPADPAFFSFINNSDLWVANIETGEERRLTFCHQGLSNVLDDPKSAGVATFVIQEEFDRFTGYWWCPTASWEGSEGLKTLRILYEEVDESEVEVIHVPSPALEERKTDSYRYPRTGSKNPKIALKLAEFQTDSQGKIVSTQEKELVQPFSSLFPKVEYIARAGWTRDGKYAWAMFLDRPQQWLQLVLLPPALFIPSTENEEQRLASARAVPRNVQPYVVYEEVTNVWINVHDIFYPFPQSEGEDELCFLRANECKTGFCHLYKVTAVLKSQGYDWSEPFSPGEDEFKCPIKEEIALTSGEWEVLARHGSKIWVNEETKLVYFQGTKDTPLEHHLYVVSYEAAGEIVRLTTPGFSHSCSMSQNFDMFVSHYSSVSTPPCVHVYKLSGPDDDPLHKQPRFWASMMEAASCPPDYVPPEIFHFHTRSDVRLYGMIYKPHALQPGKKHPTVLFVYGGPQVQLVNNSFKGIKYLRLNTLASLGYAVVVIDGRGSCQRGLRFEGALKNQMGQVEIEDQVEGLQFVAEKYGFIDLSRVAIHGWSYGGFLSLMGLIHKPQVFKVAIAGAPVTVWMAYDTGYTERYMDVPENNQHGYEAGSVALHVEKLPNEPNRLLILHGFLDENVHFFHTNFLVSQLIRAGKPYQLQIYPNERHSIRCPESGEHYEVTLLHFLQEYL
T1 sequence (P27487 whole entry): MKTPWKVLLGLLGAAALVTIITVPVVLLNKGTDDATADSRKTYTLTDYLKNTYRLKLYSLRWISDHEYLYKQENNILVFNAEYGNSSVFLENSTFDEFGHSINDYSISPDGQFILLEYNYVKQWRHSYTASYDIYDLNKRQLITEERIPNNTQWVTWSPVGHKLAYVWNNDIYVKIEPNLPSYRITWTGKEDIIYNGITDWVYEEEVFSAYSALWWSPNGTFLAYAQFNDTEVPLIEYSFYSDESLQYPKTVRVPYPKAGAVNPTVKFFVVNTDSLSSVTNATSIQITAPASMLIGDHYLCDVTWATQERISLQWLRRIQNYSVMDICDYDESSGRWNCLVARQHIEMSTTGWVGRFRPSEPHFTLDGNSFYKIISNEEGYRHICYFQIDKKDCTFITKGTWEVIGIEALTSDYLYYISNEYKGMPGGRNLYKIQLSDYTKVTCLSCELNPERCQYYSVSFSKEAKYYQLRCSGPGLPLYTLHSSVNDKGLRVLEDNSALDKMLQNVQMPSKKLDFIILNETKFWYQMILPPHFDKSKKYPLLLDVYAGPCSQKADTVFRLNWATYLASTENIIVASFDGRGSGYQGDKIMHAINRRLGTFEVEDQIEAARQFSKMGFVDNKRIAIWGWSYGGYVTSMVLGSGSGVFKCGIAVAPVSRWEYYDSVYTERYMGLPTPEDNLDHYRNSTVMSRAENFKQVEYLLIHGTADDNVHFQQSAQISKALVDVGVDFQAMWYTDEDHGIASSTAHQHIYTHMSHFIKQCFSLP

`CC(=O)O[C@@H]1C[C@@H]2C[C@@](C)(NCC(=O)N3CCC[C@H]3C#N)C[C@@H]2C1` [Example 18, (2S,3aR,5r,6aS)-5-((2-((S)-2-cyanopyrrolidin-1-yl)-2-oxoethyl)amino)-5-methyloctahydropentalen-2-yl acetate]: the results for the IC50 on DPP-IV, against DPP-8 and against DPP-9 were 2.53 nM, 20100 nM and 242 nM, respectively.
In the case of `C[C@@]1(NCC(=O)N2C[C@@H](F)C[C@H]2C#N)C[C@H]2C[C@H](O)C[C@H]2C1` [Example 9, (2S,4S)-4-fluoro-1-(2-(((2r,3aR,5R,6aS)-5-hydroxy-2-methyloctahydropentalen-2-yl)amino)acetyl)pyrrolidine-2-carbonitrile], the values for the IC50 at DPP-IV, against DPP-8 and against DPP-9 were 4.01 nM, 2850 nM and 29 nM, respectively. In addition, in the assay on normal C57BL/6 mice (male C57BL/6 mice, glucose 2.5 g/kg by gavage 30 min after administration), the “Nor-sugar rate % (5 mg/kg)” value amounted to 18.7%. In the assay with normal C57BL/6 mice (conclusion in words), the “hypoglycemic activities for C57BL/6 mice” value is “good hypoglycemic activities”.
Turning to `CCO[C@@H]1C[C@@H]2C[C@@](C)(NCC(=O)N3CCC[C@H]3C#N)C[C@@H]2C1` [Example 6, (S)-1-(2-(((2r,3aR,5S,6aS)-5-ethoxy-2-methyloctahydropentalen-2-yl)amino)acetyl)pyrrolidine-2-carbonitrile], the IC50 – broadly, the concentration needed to halve the response being measured – on DPP-IV came out at 4.52 nM; against DPP-8 it was 18200 nM; against DPP-9 it was 193 nM.
The corresponding values for `C#CC1C[C@@H]2C[C@@](C)(NCC(=O)N3C[C@@H](F)C[C@H]3C#N)C[C@@H]2C1` (stereo partly drawn) [Example 20, (2S,4S)-1-(2-(((2s,3aR,6aS)-5-ethynyl-2-methyloctahydropentalen-2-yl)amino)acetyl)-4-fluoropyrrolidine-2-carbonitrile] are 4.18 nM, 2070 nM and 91 nM.
The corresponding values for `CO[C@H]1C[C@@H]2C[C@@](C)(NCC(=O)N3CCC[C@H]3C#N)C[C@@H]2C1` [Example 10, (S)-1-(2-(((2r,3aR,5R,6aS)-5-methoxy-2-methyloctahydropentalen-2-yl)amino)acetyl)pyrrolidine-2-carbonitrile] are 2.43 nM, 5980 nM and 62 nM.
Molecule `C[C@@]1(NCC(=O)N2C[C@@H](F)C[C@H]2C#N)C[C@H]2CC3(CCO3)C[C@H]2C1` (stereo partly drawn) [Example 19, (2S,4S)-4-fluoro-1-(2-(((3a′R,5′r,6a′S)-5′-methylhexahydro-1′H-spiro[oxetane-2,2′-pentalen]-5′-yl)amino)acetyl)pyrrolidine-2-carbonitrile] came in with an IC50 on DPP-IV of 25.8 nM.
For the molecule `C[C@@]1(NCC(=O)N2CCC[C@H]2C#N)C[C@H]2C[C@@H](O)C[C@H]2C1` [Example 5, (S)-1-(2-(((2r,3aR,5S,6aS)-5-hydroxy-2-methyloctahydropentalen-2-yl)amino)acetyl)pyrrolidine-2-carbonitrile], the IC50 was found to be 27.4 nM at DPP-IV and 4330 nM on DPP-9.
For the molecule `C[C@@]1(NCC(=O)N2C[C@@H](F)C[C@H]2C#N)C[C@H]2C[C@@H](OCC3CC3)C[C@H]2C1` [Example 8, (2S,4S)-1-(2-(((2r,3aR,5S,6aS)-5-(cyclopropylmethoxy)-2-methyloctahydropentalen-2-yl)amino)acetyl)-4-fluoropyrrolidine-2-carbonitrile], the 50% inhibitory concentration (IC50) is 6.91 nM on DPP-IV, 3800 nM against DPP-8 and 31 nM on DPP-9.
Turning to `CO[C@@H]1C[C@@H]2C[C@@](C)(NCC(=O)N3CCC[C@H]3C#N)C[C@@H]2C1` [Example 1, (S)-1-(2-(((2r,3aR,5S,6aS)-5-methoxy-2-methyloctahydropentalen-2-yl)amino)acetyl)pyrrolidine-2-carbonitrile], the IC50 against DPP-IV was 11.3 nM; against DPP-8, 50500 nM; on DPP-9, 4600 nM.
For `CO[C@@H]1C[C@@H]2C[C@@](C)(NCC(=O)N3C[C@@H](F)C[C@H]3C#N)C[C@@H]2C1` [Example 2, (2S,4S)-4-fluoro-1-(2-(((2r,3aR,5S,6aS)-5-methoxy-2-methyloctahydropentalen-2-yl)amino)acetyl)pyrrolidine-2-carbonitrile] the same measures were 4.03 nM, 1580 nM and 54 nM.
For the molecule `CO[C@@H]1C[C@@H]2CC(NCC(=O)N3C[C@@H](F)C[C@H]3C#N)C3(CC3)[C@@H]2C1` (stereo partly drawn) [Example 11, (2S,4S)-4-fluoro-1-(2-(((3a′S,5′R,6a′R)-5′-methoxyhexahydro-2′H-spiro[cyclopropane-1,1′-pentalen]-2′-yl)amino)acetyl)pyrrolidine-2-carbonitrile], the IC50 against DPP-IV worked out at 105 nM; against DPP-8 it was 14200 nM; against DPP-9, 916 nM.
In turn, `C[C@@]1(NCC(=O)N2C[C@@H](F)C[C@H]2C#N)C[C@H]2C[C@@H](OC3CC3)C[C@H]2C1` [Example 13, (2S,4S)-1-(2-(((2r,3aR,5S,6aS)-5-cyclopropoxy-2-methyloctahydropentalen-2-yl)amino)acetyl)-4-fluoropyrrolidine-2-carbonitrile] returned an IC50 against DPP-IV of 9.25 nM. This lies in the single-digit nanomolar range.
In the case of `CCO[C@@H]1C[C@@H]2C[C@@](C)(NCC(=O)N3C[C@@H](F)C[C@H]3C#N)C[C@@H]2C1` [Example 7, (2S,4S)-1-(2-(((2r,3aR,5S,6aS)-5-ethoxy-2-methyloctahydropentalen-2-yl)amino)acetyl)-4-fluoropyrrolidine-2-carbonitrile], the results for the IC50 on DPP-IV, at DPP-8 and at DPP-9 were 4.29 nM, 2670 nM and 27 nM, respectively.
The corresponding values for `CO[C@H]1C[C@@H]2C[C@@](C)(NCC(=O)N3C[C@@H](F)C[C@H]3C#N)C[C@@H]2C1` [Example 4, (2S,4S)-4-fluoro-1-(2-(((2r,3aR,5R,6aS)-5-methoxy-2-methyloctahydropentalen-2-yl)amino)acetyl)pyrrolidine-2-carbonitrile] are 2.5 nM, 900 nM and 12.4 nM.
Molecule `C[C@@]1(NCC(=O)N2CCC[C@H]2C#N)C[C@H]2C[C@@H](OC3CC3)C[C@H]2C1` [Example 14, (S)-1-(2-(((2r,3aR,5S,6aS)-5-cyclopropoxy-2-methyloctahydropentalen-2-yl)amino)acetyl)pyrrolidine-2-carbonitrile] had an IC50 against DPP-IV of 9.23 nM.
On the same count and under the same terms, the same measure for `C[C@@]1(NCC(=O)N2C3C[C@H]3C[C@H]2C#N)C[C@H]2C[C@@H](O)C[C@H]2C1` (stereo partly drawn) [Example 12, (1S,3S,5S)-2-(2-(((2r,3aR,5S,6aS)-5-hydroxy-2-methyloctahydropentalen-2-yl)amino)acetyl)-2-azabicyclo[3.1.0]hexane-3-carbonitrile]: 171 nM.

Values taken from patent US9567300B2, “Hexahydropentaleno derivatives, preparation method and use in medicine thereof” (SUNSHINE LAKE PHARMA CO., LTD., priority 2012, dated 2017).
